In patent US7803930B2, “Antisense modulation of apolipoprotein B-expression” (Isis Pharmaceuticals, Inc., priority 2002, dated 2010):
In the oligonucleotide strings, read from the 5' end, every base follows the letter of its sugar. An asterisk marks phosphorothioate; unmarked linkages are phosphodiester. Other units and linkages are bracketed, terminal groups are in braces. A string of capitals states the bases alone. e = 2'-O-(2-methoxyethyl) (MOE); [5mC] = 5-methylcytosine; d = 2'-deoxy (DNA)

Legend:
[1] = test system: human apolipoprotein(a) mRNA; test: Apolipoprotein(a) mRNA expression in primary human hepatocytes, real-time PCR; assay type: cell-based; conditions: 24 hours; for % Change in apolipoprotein(a) mRNA expression following antisense inhibition of apolipoprotein B: primary human hepatocytes; for expression of apolipoprotein(a) mRNA: human primary hepatocytes, 5, 10, 50 or 150 nM
Experimental: Primary human hepatocytes (InVitro Technologies, Baltimore, Md.), cultured and transfected as described herein, were treated with 5, 10, 50 or 150 nM of ISIS 271009 (SEQ ID NO: 319), 281625 (SEQ ID NO: 224), 301012 (SEQ ID NO: 247) or 301027 (SEQ ID NO: 262). Cells were also treated with 50 or 150 nM of the control oligonucleotides ISIS 113529 (SEQ ID NO: 859) or ISIS 13650 (SEQ ID NO: 806). Untreated cells served as a control. Following 24 hours of oligonucleotide treatment, apolipoprotein(a) mRNA expression was measured by quantitative real-time PCR as described in other examples herein.
Probes and primers to human apolipoprotein(a) were designed to hybridize to a human apolipoprotein(a) sequence, using published sequence information (GenBank accession number NM_005577.1, incorporated herein as SEQ ID NO: 860). For human apolipoprotein(a) the PCR primers were: […]
forward primer: […] (SEQ ID NO: 861)
reverse primer: TGCGTCTGAGCATTGCGT (SEQ ID NO: 862) and the PCR probe was: FAM-[…]-TAMRA (SEQ ID NO: 863) where FAM is the fluorescent dye and TAMRA is the quencher dye.
Data are the average of three experiments and are expressed as percent inhibition relative to untreated controls.

[2] = test system: Cynomolgous monkey apolipoprotein B mRNA; test: Apolipoprotein B mRNA in primary Cynomolgous monkey hepatocytes, real-time PCR; assay type: cell-based; conditions: for % Inhibition of apolipoprotein B mRNA: primary Cynomolgous monkey hepatocytes
Method in brief: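 Primary cynomolgus hepatocytes treated with antisense oligonucleotides at 10, 50, 150 or 300 nM (some sets 10–150 nM) for 24 or 48 h, depending on the set. mRNA quantified by real-time PCR using human apoB and GAPDH primers/probes. Values are percent inhibition normalized to untreated cells, averaged over 2–6 experiments.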

apolipoprotein B protein = test: Apolipoprotein B protein secreted from primary Cynomolgous monkey hepatocytes, ELISA; assay type: cell-based; conditions: for % Reduction of monkey apolipoprotein B protein secretion / secretion of apolipoprotein B protein (ELISA): primary Cynomolgous hepatocytes; for % Reduction in secreted apolipoprotein B protein: primary Cynomolgous monkey hepatocytes;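 as to % Reduction in secreted apolipoprotein B protein: normalized to untreated control cells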
Method in brief: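 Primary cynomolgus hepatocytes treated with oligonucleotide at 150 and 300 nM, or 50 and 150 nM for some compounds; secreted apoB protein quantified by apoB-specific ELISA. Values are means of 3 experiments.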

[3] = Time course at two doses in female C57BL/6 mice (Example 49): AST and ALT levels; assay type: in vivo, mouse
Experimental: Female C57BL/6 mice were divided into two groups—one group receiving oligonucleotide treatment and control animals receiving saline treatment. After overnight fasting, mice were dosed intraperitoneally twice a week with saline or 25 mg/kg or 50 mg/kg of ISIS 281625 (SEQ ID NO: 224), ISIS 301012 (SEQ ID NO: 247), or ISIS 301027 (SEQ ID NO: 262). After 2 weeks, a blood sample was taken from the tail of the mice and evaluated for liver enzyme. After 4 weeks, and study termination, animals were sacrificed and evaluated for liver enzyme levels.

[4] = 150 nM (Table 49), "+" = secretion increased
[5] = 50 nM (Table 49), "+" = secretion increased
[6] = 25 or 50 mg/kg (either dose) i.p. twice a week, after 2 weeks
[7] = higher dose (50 mg/kg), after 4 weeks
[8] = lower dose (25 mg/kg), after 4 weeks
[9] = 25 mg/kg i.p. twice a week, 2 weeks
[10] = 25 mg/kg i.p. twice a week, 4 weeks
[11] = 50 mg/kg i.p. twice a week, 2 weeks
[12] = 50 mg/kg i.p. twice a week, 4 weeks

Row | Substance | % Change in apolipoprotein(a) mRNA expression following antisense inhibition of apolipoprotein B ([1]; 50 nM) | % Change in apolipoprotein(a) mRNA expression following antisense inhibition of apolipoprotein B ([1]; 150 nM) | % Inhibition of apolipoprotein B mRNA ([2]; 150 nM, 24 hours (Table 48)) [%] | % Reduction of monkey apolipoprotein B protein secretion (apolipoprotein B protein; [4]) [%] | % Change in apolipoprotein(a) mRNA expression following antisense inhibition of apolipoprotein B ([1]; 5 nM) | % Change in apolipoprotein(a) mRNA expression following antisense inhibition of apolipoprotein B ([1]; 10 nM) | AST and ALT levels [3, 6] | expression of apolipoprotein(a) mRNA [1] | ALT [3, 9] [IU/L] | AST [3, 9] [IU/L] | ALT [3, 10] [IU/L] | AST [3, 10] [IU/L] | ALT [3, 11] [IU/L] | AST [3, 11] [IU/L] | ALT [3, 12] [IU/L] | AST [3, 12] [IU/L] | also measured
1 | 113529 (antisense e[5mC]*eT*e[5mC]*eT*eT*dA*d[5mC]*dT*dG*dT*dG*d[5mC]*dT*dG*dT*eG*eG*eA*e[5mC]*eA) [compound 113529] | +14% | −9% | 11 | 15 |  |  |  |  |  |  |  |  |  |  |  |  | % Inhibition of apolipoprotein B mRNA ([2]; 150 nM, 24 hours): 5%; % Inhibition of apolipoprotein B mRNA ([2]; 150 nM, 48 hours): 42%; % Inhibition of apolipoprotein B mRNA ([2]; 300 nM, 24 hours): 19%; % Inhibition of apolipoprotein B mRNA ([2]; 300 nM, 24 hours (Table 46)): 28%; % Inhibition of apolipoprotein B mRNA ([2]; 300 nM, 48 hours): 13%; % Reduction of monkey apolipoprotein B protein secretion (apolipoprotein B protein; 150 nM (Table 47)): 12%; % Reduction in secreted apolipoprotein B protein (apolipoprotein B protein; 150 nM, 24 hours): 11%; % Reduction in secreted apolipoprotein B protein (apolipoprotein B protein; 150 nM, 48 hours): 18%; % Reduction in secreted apolipoprotein B protein (apolipoprotein B protein; 300 nM, 24 hours): 12%; % Reduction in secreted apolipoprotein B protein (apolipoprotein B protein; 300 nM, 48 hours): 8%
2 | 271009 (antisense eG*e[5mC]*e[5mC]*eT*e[5mC]*dA*dG*dT*d[5mC]*dT*dG*d[5mC]*dT*dT*d[5mC]*eG*e[5mC]*eG*e[5mC]*e[5mC]) [compound 271009] | +25% | −47% | 69 | 26 | +70% | +31% |  |  |  |  |  |  |  |  |  |  | % Inhibition of apolipoprotein B mRNA ([2]; 10 nM, 24 hours (Table 48)): 42%; % Inhibition of apolipoprotein B mRNA ([2]; 50 nM, 24 hours (Table 48)): 66%; % Reduction of monkey apolipoprotein B protein secretion (apolipoprotein B protein; [5]): +30%
3 | ISIS 281625: SEQ ID NO: 224, 2′-MOE gapmer targeted to human apolipoprotein B (antisense eA*eG*eG*eT*eT*dA*d[5mC]*d[5mC]*dA*dG*d[5mC]*d[5mC]*dA*d[5mC]*dA*eT*eG*e[5mC]*eA*eG) |  |  |  |  |  |  | remained close to those of saline | decreased |  |  |  |  |  |  |  |  | AST and ALT levels over saline treated animals [3, 7]: large increase; AST and ALT levels over saline treated animals [3, 8]: moderate increase; inhibition of apolipoprotein B mRNA expression ([2]; Cynomolgous monkey primary hepatocytes, 10, 50, 150 or 300 nM, 24 hours): in a dose-dependent manner; secretion of apolipoprotein B protein (ELISA) (apolipoprotein B protein; 50 and 150 nM (statement after Table 49)): decrease
4 | 301027 (eG*e[5mC]*eT*e[5mC]*eA*d[5mC]*dT*dG*dT*dA*dT*dG*dG*dT*dT*eT*eT*eA*eT*e[5mC]; antisense) [compound 301027] | −39% | −43% | 67 | 31 | −16% | −45% |  |  | 27.2 | 55.4 | 311.2 | 537.6 | 34.8 | 64 | 1194 | 1884 | % Inhibition of apolipoprotein B mRNA ([2]; 10 nM, 24 hours (Table 48)): 40%; % Inhibition of apolipoprotein B mRNA ([2]; 50 nM, 24 hours (Table 48)): 54%; % Reduction of monkey apolipoprotein B protein secretion (apolipoprotein B protein; [5]): 25%
5 | 301012 (eG*e[5mC]*e[5mC]*eT*e[5mC]*dA*dG*dT*d[5mC]*dT*dG*d[5mC]*dT*dT*d[5mC]*eG*e[5mC]*eA*e[5mC]*e[5mC]) [compound 301012] | +30% | +38% |  |  | +34% | +86% |  |  | 22.4 | 37.2 | 24.8 | 89.8 | 23.2 | 38.4 | 29.2 | 107.4 | % Inhibition of apolipoprotein B mRNA ([2]; 10 nM, 24 hours): 24%; % Inhibition of apolipoprotein B mRNA ([2]; 10 nM, 48 hours): 76%; % Inhibition of apolipoprotein B mRNA ([2]; 50 nM, 24 hours): 60%; % Inhibition of apolipoprotein B mRNA ([2]; 50 nM, 48 hours): 77%; % Inhibition of apolipoprotein B mRNA ([2]; 150 nM, 24 hours): 56%; % Inhibition of apolipoprotein B mRNA ([2]; 150 nM, 48 hours): 88%; % Inhibition of apolipoprotein B mRNA ([2]; 300 nM, 24 hours): 61%; % Inhibition of apolipoprotein B mRNA ([2]; 300 nM, 48 hours): 86%; % Reduction in secreted apolipoprotein B protein (apolipoprotein B protein; 150 nM, 24 hours): 31%; % Reduction in secreted apolipoprotein B protein (apolipoprotein B protein; 150 nM, 48 hours): 25%; % Reduction in secreted apolipoprotein B protein (apolipoprotein B protein; 300 nM, 24 hours): 10%; % Reduction in secreted apolipoprotein B protein (apolipoprotein B protein; 300 nM, 48 hours): 17%
6 | ISIS 301027: SEQ ID NO: 262, 2′-MOE gapmer targeted to human apolipoprotein B (antisense eG*e[5mC]*eT*e[5mC]*eA*d[5mC]*dT*dG*dT*dA*dT*dG*dG*dT*dT*eT*eT*eA*eT*e[5mC]) |  |  |  |  |  |  | small increase | decreased |  |  |  |  |  |  |  |  | AST and ALT levels ([3]; either dose, after 4 weeks): huge increase; inhibition of apolipoprotein B mRNA expression ([2]; Cynomolgous monkey primary hepatocytes, 10, 50 and 150 nM, 24 hours): in a dose-dependent manner
7 | 281625 (antisense eA*eG*eG*eT*eT*dA*d[5mC]*d[5mC]*dA*dG*d[5mC]*d[5mC]*dA*d[5mC]*dA*eT*eG*e[5mC]*eA*eG) [compound 281625] | −34% | +32% |  |  | −9% | −23% |  |  | 21.2 | 40.8 | 31.8 | 75 | 30.8 | 44.4 | 210.4 | 152.4 | % Inhibition of apolipoprotein B mRNA ([2]; 10 nM, 24 hours (Table 46), "+" = expression increased): +5%; % Inhibition of apolipoprotein B mRNA ([2]; 50 nM, 24 hours (Table 46)): 41%; % Inhibition of apolipoprotein B mRNA ([2]; 150 nM, 24 hours (Table 46), "+" = expression increased): 35%; % Inhibition of apolipoprotein B mRNA ([2]; 300 nM, 24 hours (Table 46)): 69%; % Reduction of monkey apolipoprotein B protein secretion (apolipoprotein B protein; 50 nM (Table 47)): 6%; % Reduction of monkey apolipoprotein B protein secretion (apolipoprotein B protein; 150 nM (Table 47)): 13%
8 | ISIS 301012: SEQ ID NO: 247, antisense oligonucleotide targeted to human apolipoprotein B (antisense GCCTCAGTCTGCTTCGCACC; chemistry not given here) |  |  |  |  |  |  | remained close to those of saline | did not inhibit |  |  |  |  |  |  |  |  | AST and ALT levels over saline treated animals [3, 7]: large increase; AST and ALT levels over saline treated animals [3, 8]: moderate increase; inhibition of apolipoprotein B mRNA expression ([2]; cynomolgous monkey primary hepatocytes, 10, 50, 150 or 300 nM): in a dose- and time-dependent manner; secretion of apolipoprotein B protein (ELISA) (apolipoprotein B protein; 150 and 300 nM): decrease
